Assay [1] relates to Pseudomonas aeruginosa UI-18: Wild-type (PA-7). Nature of the assay: MIC determination (CLSI), strain PA-7. The class given is cell-based. To be noted: strain PA-7; unit assumed. The method, boiled down:
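MIC determined by broth dilution per CLSI M7-A7 guidelines with M100-S18 interpretive standards. Test organism: wild-type Pseudomonas aeruginosa UI-18, designated PA-7.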

Assay [2] concerns Escherichia coli EC-1: VOGEL, mouse virulent. Nature of the assay: MIC determination (CLSI), strain EC-1. The class given is cell-based. Particulars: strain EC-1; unit assumed. Put shortly: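 The mouse-virulent VOGEL isolate of E. coli, EC-1, served as test organism. Minimum inhibitory concentration was measured by CLSI dilution methodology (M7-A7; M100-S18 standards).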

Each structure is given as a SMILES string.

Consider `C[C@@](CCn1ccc(-c2ccc(Oc3nccc4occc34)cc2)cc1=O)(C(=O)NO)S(C)(=O)=O` [Example 437, (2R)-4-{4-[4-(furo[3,2-c]pyridin-4-yloxy)phenyl]-2-oxopyridin-1(2H)-yl}-N-hydroxy-2-methyl-2-(methylsulfonyl)butanamide], for which the PA-7 (MIC) in assay [1] is 4 µg/mL. For the same compound, in assay [2], the EC-1 (MIC) worked out at 0.25 µg/mL.

Regarding `Cc1ccc(C#N)c(Oc2ccc(-c3ccn(CC[C@](C)(C(=O)NO)S(C)(=O)=O)c(=O)c3)cc2)n1` [Example 438, (2R)-4-[4-{4-[(3-cyano-6-methylpyridin-2-yl)oxy]phenyl}-2-oxopyridin-1(2H)-yl]-N-hydroxy-2-methyl-2-(methylsulfonyl)butanamide], the PA-7 (MIC) in assay [1] was determined as 8 µg/mL. This compound showed an EC-1 (MIC) in assay [2] of 4 µg/mL.

Consider `C[C@@](CCn1ccc(-c2ccc(Oc3ncccc3Cl)cc2)cc1=O)(C(=O)NO)S(C)(=O)=O` [Example 440, (2R)-4-[4-{4-[(3-chloropyridin-2-yl)oxy]phenyl}-2-oxopyridin-1(2H)-yl]-N-hydroxy-2-methyl-2-(methylsulfonyl)butanamide], for which, in assay [1], the PA-7 (MIC) came out at 2 µg/mL. Moreover, the EC-1 (MIC) in assay [2] stood at 0.06 µg/mL.

`C[C@@](CCn1ccc(-c2ccc(Oc3cccnc3C#N)cc2)cc1=O)(C(=O)NO)S(C)(=O)=O` [Example 442, (2R)-4-[4-{4-[(2-cyanopyridin-3-yl)oxy]phenyl}-2-oxopyridin-1(2H)-yl]-N-hydroxy-2-methyl-2-(methylsulfonyl)butanamide] registered a PA-7 (MIC) in assay [1] of 4 µg/mL. The same compound displayed an EC-1 (MIC) in assay [2] of 4 µg/mL.

In turn, `C[C@@](CCn1ccc(-c2ccc(Oc3ccnc4ccccc34)cc2)cc1=O)(C(=O)NO)S(C)(=O)=O` [Example 444] yielded a PA-7 (MIC) in assay [1] of 2 µg/mL. In addition, in assay [2], the EC-1 (MIC) turned out to be 0.125 µg/mL.

Compound `C[C@@](CCn1ccc(-c2ccc(Oc3nc4ccccc4s3)cc2)cc1=O)(C(=O)NO)S(C)(=O)=O` [Example 445] displayed a PA-7 (MIC) in assay [1] of 4 µg/mL. In assay [2], this compound had an EC-1 (MIC) of 0.25 µg/mL.

Turning to `C[C@@](CCn1ccc(-c2ccc(Oc3noc4ccccc34)cc2)cc1=O)(C(=O)NO)S(C)(=O)=O` [Example 450, (2R)-4-{4-[4-(1,2-benzisoxazol-3-yloxy)phenyl]-2-oxopyridin-1(2H)-yl}-N-hydroxy-2-methyl-2-(methylsulfonyl)butanamide], the PA-7 (MIC) in assay [1] turned out to be 2 µg/mL. The compound also came in with an EC-1 (MIC) in assay [2] of 0.06 µg/mL.

In turn, `C[C@@](CCn1ccc(-c2cc(F)cc(Cl)c2Cl)cc1=O)(C(=O)NO)S(C)(=O)=O` [Example 451, (2R)-4-[4-(2,3-dichloro-5-fluorophenyl)-2-oxopyridin-1(2H)-yl]-N-hydroxy-2-methyl-2-(methylsulfonyl)butanamide] had a PA-7 (MIC) in assay [1] of 4 µg/mL. The EC-1 (MIC) in assay [2] was determined as 4 µg/mL.

In assay [1], `COc1ccc(-c2ccn(CC[C@](C)(C(=O)NO)S(C)(=O)=O)c(=O)c2)c(Cl)c1Cl` [Example 452, (2R)-4-[4-(2,3-dichloro-4-methoxyphenyl)-2-oxopyridin-1(2H)-yl]-N-hydroxy-2-methyl-2-(methylsulfonyl)butanamide] had a PA-7 (MIC) of 2 µg/mL. This compound yielded an EC-1 (MIC) in assay [2] of 4 µg/mL.

For the compound `C[C@@](CCn1ccc(-c2ccc(-c3cccnn3)cc2)cc1=O)(C(=O)NO)S(C)(=O)=O` [Example 453, (2R)-N-hydroxy-2-methyl-2-(methylsulfonyl)-4-[2-oxo-4-(4-pyridazin-3-ylphenyl)pyridin-1(2H)-yl]butanamide], in assay [1], the PA-7 (MIC) was determined as 8 µg/mL. The compound also registered an EC-1 (MIC) in assay [2] of 4 µg/mL.

In assay [1], `C[C@@](CCn1ccc(-c2ccc(-c3cnoc3)cc2)cc1=O)(C(=O)NO)S(C)(=O)=O` [Example 454, (2R)-N-hydroxy-4-[4-(4-isoxazol-4-ylphenyl)-2-oxopyridin-1(2H)-yl]-2-methyl-2-(methylsulfonyl)butanamide] returned a PA-7 (MIC) of 4 µg/mL. The compound also came in with an EC-1 (MIC) in assay [2] of 2 µg/mL.

In assay [1], `Cc1cnn(-c2ccc(-c3ccn(CCC(C)(C(=O)NO)S(C)(=O)=O)c(=O)c3)cc2)n1` (stereo not shown) [Example 455] came in with a PA-7 (MIC) of 1 µg/mL. The same compound showed an EC-1 (MIC) in assay [2] of 0.06 µg/mL.

In turn, `Cc1ccc(-c2ccc(-c3ccn(CC[C@](C)(C(=O)NO)S(C)(=O)=O)c(=O)c3)cc2)cn1` [Example 456, (2R)-N-hydroxy-2-methyl-4-{4-[4-(6-methylpyridin-3-yl)phenyl]-2-oxopyridin-1(2H)-yl}-2-(methylsulfonyl)butanamide] came in with a PA-7 (MIC) in assay [1] of 1 µg/mL. Also, in assay [2], the EC-1 (MIC) amounted to 0.25 µg/mL.

`Cc1cnc(-c2ccc(-c3ccn(CC[C@](C)(C(=O)NO)S(C)(=O)=O)c(=O)c3)cc2)cn1` [Example 457, (2R)-N-hydroxy-2-methyl-4-{4-[4-(5-methylpyrazin-2-yl)phenyl]-2-oxopyridin-1(2H)-yl}-2-(methylsulfonyl)butanamide] had a PA-7 (MIC) in assay [1] of 2 µg/mL. Moreover, the EC-1 (MIC) in assay [2] was determined as 0.5 µg/mL.

As to `C[C@@](CCn1ccc(-c2ccc(-c3ncc(Cl)cn3)cc2)cc1=O)(C(=O)NO)S(C)(=O)=O` [Example 458, (2R)-4-{4-[4-(5-chloropyrimidin-2-yl)phenyl]-2-oxopyridin-1(2H)-yl}-N-hydroxy-2-methyl-2-(methylsulfonyl)butanamide], the PA-7 (MIC) in assay [1] stood at 0.5 µg/mL. This compound displayed an EC-1 (MIC) in assay [2] of 0.06 µg/mL.

The compound `COc1c(F)cc(-c2ccn(CC[C@](C)(C(=O)NO)S(C)(=O)=O)c(=O)c2)cc1F` [Example 459] yielded a PA-7 (MIC) in assay [1] of 2 µg/mL. Besides, the EC-1 (MIC) in assay [2] came to 2 µg/mL.

Take `Cc1cnc(-c2ccc(-c3ccn(CC[C@](C)(C(=O)NO)S(C)(=O)=O)c(=O)c3)cc2)nc1` [Example 461]: the PA-7 (MIC) in assay [1] came out at 1 µg/mL. In assay [2], this compound gave an EC-1 (MIC) of 0.125 µg/mL.

Consider `CCCCc1ccc(-c2ccn(CC[C@](C)(C(=O)NO)S(C)(=O)=O)c(=O)c2)cc1` [Example 464, (2R)-4-[4-(4-butylphenyl)-2-oxopyridin-1(2H)-yl]-N-hydroxy-2-methyl-2-(methylsulfonyl)butanamide], for which the PA-7 (MIC) in assay [1] came to 1 µg/mL. The EC-1 (MIC) in assay [2] turned out to be 0.03 µg/mL.

Regarding `CCCc1ccc(-c2ccn(CC[C@](C)(C(=O)NO)S(C)(=O)=O)c(=O)c2)cc1` [Example 465, (2R)-N-hydroxy-2-methyl-2-(methylsulfonyl)-4-[2-oxo-4-(4-propylphenyl)pyridin-1(2H)-yl]butanamide], the PA-7 (MIC) in assay [1] was 0.5 µg/mL. This compound yielded an EC-1 (MIC) in assay [2] of 0.125 µg/mL.

Compound `CC(C)c1cccc(-c2ccn(CC[C@](C)(C(=O)NO)S(C)(=O)=O)c(=O)c2)c1` [Example 466] gave a PA-7 (MIC) in assay [1] of 4 µg/mL. In assay [2], this compound yielded an EC-1 (MIC) of 2 µg/mL.

On to `Cc1cc(-c2ccn(CC[C@](C)(C(=O)NO)S(C)(=O)=O)c(=O)c2)ccc1C#N` [Example 467], for which the PA-7 (MIC) in assay [1] amounted to 2 µg/mL. This compound had an EC-1 (MIC) in assay [2] of 4 µg/mL.

The compound `COc1cccc(-c2ccn(CC[C@](C)(C(=O)NO)S(C)(=O)=O)c(=O)c2)c1C` [Example 468] had a PA-7 (MIC) in assay [1] of 2 µg/mL. In assay [2], this compound displayed an EC-1 (MIC) of 2 µg/mL.

Take `COCCc1cccc(-c2ccn(CC[C@](C)(C(=O)NO)S(C)(=O)=O)c(=O)c2)c1` [Example 470]: in assay [1], the PA-7 (MIC) was determined as 32 µg/mL. For the same compound, the EC-1 (MIC) in assay [2] was found to be 16 µg/mL.

`Cc1cc(C#N)ccc1-c1ccn(CC[C@](C)(C(=O)NO)S(C)(=O)=O)c(=O)c1` [Example 472] yielded a PA-7 (MIC) in assay [1] of 8 µg/mL. The compound also had an EC-1 (MIC) in assay [2] of 32 µg/mL.

In turn, `C[C@@](CCn1ccc(-c2ccc3cc(N)ncc3c2)cc1=O)(C(=O)NO)S(C)(=O)=O` [Example 473] came in with a PA-7 (MIC) in assay [1] of 16 µg/mL. Also, the EC-1 (MIC) in assay [2] amounted to 16 µg/mL.

In turn, `C[C@@](CCn1ccc(-c2cnc(-c3ccccc3)o2)cc1=O)(C(=O)NO)S(C)(=O)=O` [Example 474] displayed a PA-7 (MIC) in assay [1] of 64 µg/mL. Also, the EC-1 (MIC) in assay [2] is 64 µg/mL.

In the case of `CC(C#N)Sc1cccc(-c2ccn(CC[C@](C)(C(=O)NO)S(C)(=O)=O)c(=O)c2)c1` (stereo partly shown) [Example 475], the PA-7 (MIC) in assay [1] was found to be 8 µg/mL. In assay [2], the EC-1 (MIC) is 8 µg/mL.

As to `Cc1ccc(-c2ccn(CC[C@](C)(C(=O)NO)S(C)(=O)=O)c(=O)c2)cc1C#N` [Example 476], the PA-7 (MIC) in assay [1] came out at 8 µg/mL. Also, in assay [2], the EC-1 (MIC) turned out to be 16 µg/mL.

`COc1cc(-c2ccn(CC[C@](C)(C(=O)NO)S(C)(=O)=O)c(=O)c2)c(F)cc1C#N` [Example 477] returned a PA-7 (MIC) in assay [1] of 32 µg/mL. This compound also displayed an EC-1 (MIC) in assay [2] of 64 µg/mL.

Consider `COC(=O)CCc1ccc(-c2ccn(CC[C@](C)(C(=O)NO)S(C)(=O)=O)c(=O)c2)cc1` [Example 478], for which the PA-7 (MIC) in assay [1] turned out to be 1 µg/mL. This compound came in with an EC-1 (MIC) in assay [2] of 2 µg/mL.

Compound `CCOc1ccc(-c2ccn(CC[C@](C)(C(=O)NO)S(C)(=O)=O)c(=O)c2)cc1C#N` [Example 479] gave a PA-7 (MIC) in assay [1] of 16 µg/mL. For the same compound, the EC-1 (MIC) in assay [2] is 64 µg/mL.

The compound `C[C@@](CCn1ccc(-c2cccc(OC(F)F)c2)cc1=O)(C(=O)NO)S(C)(=O)=O` [Example 480] showed a PA-7 (MIC) in assay [1] of 4 µg/mL. The compound further came in with an EC-1 (MIC) in assay [2] of 8 µg/mL.

The compound `C[C@@](CCn1ccc(-c2ccc3c(c2)C(=O)OCC3)cc1=O)(C(=O)NO)S(C)(=O)=O` [Example 481] gave a PA-7 (MIC) in assay [1] of 64 µg/mL. This compound also showed an EC-1 (MIC) in assay [2] of over 64 µg/mL.

Take `COc1ccnc2ccc(-c3ccn(CC[C@](C)(C(=O)NO)S(C)(=O)=O)c(=O)c3)cc12` [Example 482]: in assay [1], the PA-7 (MIC) was over 64 µg/mL. In addition, the EC-1 (MIC) in assay [2] is over 64 µg/mL.

In assay [1], `Cn1c(=O)sc2cc(-c3ccn(CC[C@](C)(C(=O)NO)S(C)(=O)=O)c(=O)c3)ccc21` [Example 483] gave a PA-7 (MIC) of 8 µg/mL. Moreover, the EC-1 (MIC) in assay [2] was found to be 8 µg/mL.

As to `C[C@@](CCn1ccc(-c2ccc3cnc(N)cc3c2)cc1=O)(C(=O)NO)S(C)(=O)=O` [Example 485], the PA-7 (MIC) in assay [1] turned out to be 32 µg/mL. The compound also had an EC-1 (MIC) in assay [2] of 64 µg/mL.

`C[C@@](CCn1ccc(-c2ccc3c(c2)C(=O)OC3)cc1=O)(C(=O)NO)S(C)(=O)=O` [Example 486] registered a PA-7 (MIC) in assay [1] of over 64 µg/mL. In addition, in assay [2], the EC-1 (MIC) was over 64 µg/mL.

`CC(CCn1ccc(OCCCC2CCCC2)cc1=O)(C(=O)NO)S(C)(=O)=O` (stereo not shown) [Example 488, 4-[4-(3-cyclopentylpropoxy)-2-oxopyridin-1(2H)-yl]-N-hydroxy-2-methyl-2-(methylsulfonyl)butanamide] returned a PA-7 (MIC) in assay [1] of 64 µg/mL. Further, the EC-1 (MIC) in assay [2] turned out to be 8 µg/mL.

(Values after patent US8846933B2, “N-link hydroxamic acid derivatives useful as antibacterial agents” (Pfizer Inc., priority 2009, dated 2014).)
